Test systems include MDA-MB-231 breast; M14 melanoma; HOP-92 NSCLC; UACC-62 melanoma; NCI-H522 lung; ACHN renal; UACC-257 melanoma; HL-60(TB) leukemia; A549 NSCLC; RXF 393 renal.
Holding throughout (assay): inhibition of tumour cell growth, NCI panel, 48 h

Values joined by “and” are separate entries in the source; they are usually repeats but may differ in a detail not shown here. Equal entries are not always repeated.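 Method: 48-hour compound exposure of cells in 96-well plates, five concentrations, linear interpolation of endpoints. GI50 = concentration required for 50% inhibition of growth. TGI is the concentration that stops growth completely.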

On to `O=C(/C=C\c1ccccc1)Oc1ccc(/C=C2\CCC/C(=C\c3ccc(OC(=O)/C=C\c4ccccc4)cc3)C2=O)cc1`, for which the TGI in the assay on MDA-MB-231 breast, with M14 melanoma, in the assay with HOP-92 NSCLC, in the assay with UACC-62 melanoma, with NCI-H522 lung and with ACHN renal was over 100 µM throughout. Besides, the TGI with UACC-257 melanoma, in the assay on HL-60(TB) leukemia and with A549 NSCLC was over 100 µM in each case.

With `Cc1ccc(NC(=O)CC/C(CC(=O)C(C)(C)C)=N/NC(=O)c2cc3ccccc3cc2O)cc1C`, the TGI with M14 melanoma was 96 µM; with HOP-92 NSCLC it was over 100 µM; in the assay with UACC-62 melanoma, 66 µM; in the assay on RXF 393 renal, over 100 µM; in the assay on ACHN renal, over 100 µM; in the assay on UACC-257 melanoma, over 100 µM. In the assay with HL-60(TB) leukemia, this molecule had a TGI of over 100 µM.

`CCC12CCC[C@@]13C=C[C@H](O3)C(C)(C)C2=O` (stereo partly drawn): the TGI with M14 melanoma, with UACC-62 melanoma, in the assay with RXF 393 renal, in the assay on NCI-H522 lung, in the assay on ACHN renal and in the assay with UACC-257 melanoma was over 100 µM in each case. For the same molecule, the TGI in the assay on HL-60(TB) leukemia and in the assay on A549 NSCLC was over 100 µM in each case.

`COC(=O)Nc1cc(OCCCOC(C)=O)c2[nH]c(C(=O)OC)cc2c1C[C@H](O)CO`: the TGI with MDA-MB-231 breast was over 100 µM; with M14 melanoma it was over 100 µM; in the assay with HOP-92 NSCLC, over 100 µM; in the assay with UACC-62 melanoma, over 100 µM; in the assay with NCI-H522 lung, 26.9 µM; with ACHN renal it was over 100 µM. The TGI in the assay on UACC-257 melanoma, with HL-60(TB) leukemia and in the assay with A549 NSCLC was over 100 µM in each case.

As for `COc1ccc(/C(C=O)=C(\Cl)c2ccc(OC)c(OC)c2)cc1`, the TGI was over 100 µM in the assay with M14 melanoma; over 100 µM in the assay with UACC-62 melanoma; over 100 µM in the assay on RXF 393 renal; 33.5 µM with NCI-H522 lung; over 100 µM in the assay on ACHN renal; over 100 µM with UACC-257 melanoma. The TGI with HL-60(TB) leukemia and in the assay on A549 NSCLC was over 100 µM throughout.

As for `COc1ccc(O[C@H](CO)C[C@@H]2COC(C)(C)O2)cc1`, the TGI in the assay with MDA-MB-231 breast, in the assay on M14 melanoma, with UACC-62 melanoma, in the assay with RXF 393 renal, in the assay with NCI-H522 lung and in the assay with ACHN renal was over 100 µM in each case. The TGI in the assay with UACC-257 melanoma and in the assay with A549 NSCLC was over 100 µM throughout.

Regarding `CC1CC(c2ccccc2)=Nc2ccccc2S1` (stereo not drawn), the TGI in the assay with M14 melanoma, in the assay with HOP-92 NSCLC, in the assay on UACC-62 melanoma, in the assay on RXF 393 renal, with NCI-H522 lung and in the assay on ACHN renal was over 100 µM in each case. Also, the TGI with UACC-257 melanoma, with HL-60(TB) leukemia and in the assay on A549 NSCLC was over 100 µM each time.

As for `CC(C)C(NCc1c2ccccc2[n+](C)c2ccccc12)C(=O)O` (stereo not drawn), the TGI amounted to 16 µM in the assay on M14 melanoma; 12.5 µM in the assay with HOP-92 NSCLC; 18.6 µM in the assay on UACC-62 melanoma; 12.5 µM with RXF 393 renal; 3.69 µM with NCI-H522 lung; 16.4 µM in the assay with ACHN renal. For the same molecule, the TGI with UACC-257 melanoma was 19.5 µM; in the assay on HL-60(TB) leukemia, over 21 µM; in the assay on A549 NSCLC, 29.9 µM.

`COc1cc2c(cc1OC)C1=C(C=O)c3ccc(OC)c(OC)c3C(O)N1CC2` (stereo not drawn): the TGI in the assay on MDA-MB-231 breast is 46.6 µM; with M14 melanoma, 78.1 µM; in the assay with UACC-62 melanoma it was 29.4 µM; in the assay on NCI-H522 lung it was 75.2 µM; in the assay with ACHN renal it was over 100 µM; in the assay on UACC-257 melanoma it was 50 µM. Besides, the TGI with HL-60(TB) leukemia was 75.2 µM; with A549 NSCLC, over 100 µM.

Consider `O=C1c2ccccc2-c2c1c1ccccc1c(=O)n2CCCNCCNCCCn1c2c(c3ccccc3c1=O)C(=O)c1ccccc1-2`, for which the GI50 was under 0.0381 µM in the assay on MDA-MB-231 breast; 0.288 µM in the assay with M14 melanoma; 0.174 µM in the assay with UACC-62 melanoma; 0.151 µM with NCI-H522 lung; under 0.01 µM in the assay with ACHN renal; 1.24 µM in the assay on UACC-257 melanoma. Further, the GI50 in the assay with HL-60(TB) leukemia was 3.51 µM; in the assay on A549 NSCLC, 0.0534 µM. Moreover, the TGI in the assay with MDA-MB-231 breast is 0.437 µM; with M14 melanoma it was 1.93 µM; with UACC-62 melanoma, 1.88 µM; with ACHN renal it was 1.31 µM; with UACC-257 melanoma it was 3.47 µM; in the assay on HL-60(TB) leukemia it was over 100 µM. Moreover, the TGI with A549 NSCLC was found to be 1.63 µM.

For the molecule `COc1ccc(C(=CCC(C)C2CCC3[C@@H]4C(OC(C)=O)CC5CC(OC(C)=O)CC[C@]5(C)C4CC(OC(C)=O)[C@]23C)c2ccc(OC)cc2)cc1` (stereo partly drawn), the TGI with MDA-MB-231 breast was over 100 µM; in the assay on M14 melanoma it was over 100 µM; in the assay with NCI-H522 lung, over 100 µM; in the assay with ACHN renal, over 100 µM; in the assay on UACC-257 melanoma, over 100 µM; in the assay on HL-60(TB) leukemia, 45.3 µM. Besides, the TGI in the assay on A549 NSCLC is over 100 µM.

Consider `COc1c(OC2OC(CO)C(O)C(O)C2O)cc2c(c1OC)-c1ccc(OC)c(=O)cc1C(NC(C)=O)CC2` (stereo not drawn), for which the TGI with M14 melanoma, in the assay with HOP-92 NSCLC, in the assay with UACC-62 melanoma, in the assay with RXF 393 renal, with NCI-H522 lung and with ACHN renal was over 100 µM each time. In addition, the TGI with UACC-257 melanoma, in the assay on HL-60(TB) leukemia and in the assay on A549 NSCLC was over 100 µM in each case.

As to `COc1cccc(/C=N/[N-]C(N)=O)c1[O-].[Cu+2].[OH3+]`, the results for the GI50 with HOP-92 NSCLC and with HL-60(TB) leukemia were 4.77 µM and 10.8 µM, respectively. Further, the TGI with HOP-92 NSCLC was 8.9 µM and 15.5 µM; in the assay on RXF 393 renal it was 36.2 µM; with ACHN renal it was 24.8 µM; with UACC-257 melanoma, 28.5 µM; with HL-60(TB) leukemia, over 100 µM.

In the case of `[C-]#[O+].[Cl][Sn]([Cl])[Cl].[Cl][Sn]([Cl])[Cl].[Pt].c1cnc2c(c1)ccc1cccnc12`, the TGI is 51.5 µM in the assay with HOP-92 NSCLC; over 22.4 µM in the assay with UACC-62 melanoma; over 100 µM in the assay on NCI-H522 lung; over 100 µM in the assay with UACC-257 melanoma; 7.95 µM with HL-60(TB) leukemia; over 100 µM in the assay on A549 NSCLC.

In the case of `O=C(O)CCCc1ccc2c(c1)C(C(=O)O)CC2` (stereo not drawn), the TGI in the assay with MDA-MB-231 breast, with M14 melanoma, in the assay with UACC-62 melanoma, with RXF 393 renal, with NCI-H522 lung and with ACHN renal was over 100 µM in each case. Besides, the TGI in the assay on UACC-257 melanoma, in the assay with HL-60(TB) leukemia and with A549 NSCLC was over 100 µM throughout.

For the origin of these results see PubChem BioAssay (NCI).
